For 23 compounds, Ki results are on record in patent US10562908B2, “Ortho substituted phenylpyrazolo- and phenylpyrrolo-pyridazine derivatives having multimodal activity against pain” (priority 2016, dated 2020).

Test [1] deals with T1, human μ-opioid receptor (Homo sapiens, UniProt P35372).
T1 construct: expressed in transfected cells; host or cells: CHO-K1
The test can be described thus: Human μ-opioid receptor radioligand assay ([3H]-DAMGO). Type of test: binding. The protocol:
Human μ-Opioid Receptor Radioligand Assay
To investigate binding properties of test compounds to human μ-opioid receptor, transfected CHO-K1 cell membranes and [^3H]-DAMGO (Perkin Elmer, ES-542-C), as the radioligand, were used. The assay was carried out with 20 μg of membrane suspension, 1 nM of [^3H]-DAMGO in either absence or presence of either buffer or 10 μM Naloxone for total and non-specific binding, respectively. Binding buffer contained Tris-HCl 50 mM, MgCl2 5 mM at pH 7.4. Plates were incubated at 27° C. for 60 minutes. After the incubation period, the reaction mix was then transferred to MultiScreen HTS, FC plates (Millipore), filtered and plates were washed 3 times with ice-cold 10 mM Tris-HCL (pH 7.4). Filters were dried and counted at approximately 40% efficiency in a MicroBeta scintillation counter (Perkin-Elmer) using EcoScint liquid scintillation cocktail, preferably, transfected CHO-K1 cell membranes (20 μg) were incubated with 1 nM of [^3H]-DAMGO in assay buffer containing Tris-HCl 50 mM, MgCl2 5 mM at pH 7.4. NBS (non-specific binding) was measured by adding 10 μM Naloxone. The binding of the test compound was measured at five different concentrations. Plates were incubated at 27° C. for 60 minutes. After the incubation period, the reaction mix was then transferred to MultiScreen HTS, FC plates (Millipore), filtered and plates were washed 3 times with ice-cold 10 mM Tris-HCL (pH 7.4). Filters were dried and counted at approximately 40% efficiency in a MicroBeta scintillation counter (Perkin-Elmer) using EcoScint liquid scintillation cocktail.

The target of test [2] is Human α2δ-1 subunit of Cav2.2 calcium channel (Homo sapiens, UniProt P54289). Kind of test: Human α2δ-1 subunit of Cav2.2 calcium channel assay ([3H]-Gabapentin). Type of test: binding. The method, then:
Human α2δ-1 Subunit of Cav2.2 Calcium Channel Assay
Human α2δ-1 enriched membranes (2.5 μg) were incubated with 15 nM of radiolabeled [3H]-Gabapentin in assay buffer containing Hepes-KOH 10 mM, pH 7.4. NSB (non specific binding) was measured by adding 10 μM pregabalin. After 60 min incubation at 27° C., binding reaction was terminated by filtering through Multiscreen GF/C (Millipore) presoaked in 0.5% polyethyleneimine in Vacuum Manifold Station, followed by 3 washes with ice-cold filtration buffer containing 50 mM Tris-HCl, pH 7.4. Filter plates were dried at 60° C. for 1 hour and 30 μl of scintillation cocktail were added to each well before radioactivity reading. Readings were performed in a Trilux 1450 Microbeta radioactive counter (Perkin Elmer), i.e. Human α2δ-1 enriched membranes (2.5 μg) were incubated with 15 nM of radiolabeled [3H]-Gabapentin in assay buffer containing Hepes-KOH 10 mM, pH 7.4. NSB (non specific binding) was measured by adding 10 μM pregabalin. The binding of the test compound was measured at five different concentrations. After 60 min incubation at 27° C., binding reaction was terminated by filtering through Multiscreen GF/C (Millipore) presoaked in 0.5% polyethyleneimine in Vacuum Manifold Station, followed by 3 washes with ice-cold filtration buffer containing 50 mM Tris-HCl, pH 7.4. Filter plates were dried at 60° C. for 1 hour and 30 μl of scintillation cocktail were added to each well before radioactivity reading. Readings were performed in a Trilux 1450 Microbeta radioactive counter (Perkin Elmer).

[3] abbreviates: transfected CHO-K1 cell membranes, 1 nM [3H]-DAMGO, read-out: Binding μ (Ki).
Setting [4] is: human α2δ-1 enriched membranes, 15 nM [3H]-Gabapentin, read-out: Binding α2δ-1 (Ki).

Read-outs that look alike come from different tables or passages of the source.

T1 sequence (P35372 whole entry): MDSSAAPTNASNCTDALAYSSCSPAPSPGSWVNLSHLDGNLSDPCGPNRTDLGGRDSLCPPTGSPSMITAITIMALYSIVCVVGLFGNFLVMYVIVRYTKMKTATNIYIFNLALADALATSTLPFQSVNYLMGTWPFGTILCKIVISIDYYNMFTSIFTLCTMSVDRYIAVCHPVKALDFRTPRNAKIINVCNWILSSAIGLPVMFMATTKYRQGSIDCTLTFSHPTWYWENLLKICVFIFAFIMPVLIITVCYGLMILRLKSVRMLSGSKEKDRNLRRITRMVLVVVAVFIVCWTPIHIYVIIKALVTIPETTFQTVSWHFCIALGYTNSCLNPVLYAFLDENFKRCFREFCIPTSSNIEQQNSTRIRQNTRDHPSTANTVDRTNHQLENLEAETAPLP
Human α2δ-1 subunit of Cav2.2 calcium channel, sequence (P54289 25-1103): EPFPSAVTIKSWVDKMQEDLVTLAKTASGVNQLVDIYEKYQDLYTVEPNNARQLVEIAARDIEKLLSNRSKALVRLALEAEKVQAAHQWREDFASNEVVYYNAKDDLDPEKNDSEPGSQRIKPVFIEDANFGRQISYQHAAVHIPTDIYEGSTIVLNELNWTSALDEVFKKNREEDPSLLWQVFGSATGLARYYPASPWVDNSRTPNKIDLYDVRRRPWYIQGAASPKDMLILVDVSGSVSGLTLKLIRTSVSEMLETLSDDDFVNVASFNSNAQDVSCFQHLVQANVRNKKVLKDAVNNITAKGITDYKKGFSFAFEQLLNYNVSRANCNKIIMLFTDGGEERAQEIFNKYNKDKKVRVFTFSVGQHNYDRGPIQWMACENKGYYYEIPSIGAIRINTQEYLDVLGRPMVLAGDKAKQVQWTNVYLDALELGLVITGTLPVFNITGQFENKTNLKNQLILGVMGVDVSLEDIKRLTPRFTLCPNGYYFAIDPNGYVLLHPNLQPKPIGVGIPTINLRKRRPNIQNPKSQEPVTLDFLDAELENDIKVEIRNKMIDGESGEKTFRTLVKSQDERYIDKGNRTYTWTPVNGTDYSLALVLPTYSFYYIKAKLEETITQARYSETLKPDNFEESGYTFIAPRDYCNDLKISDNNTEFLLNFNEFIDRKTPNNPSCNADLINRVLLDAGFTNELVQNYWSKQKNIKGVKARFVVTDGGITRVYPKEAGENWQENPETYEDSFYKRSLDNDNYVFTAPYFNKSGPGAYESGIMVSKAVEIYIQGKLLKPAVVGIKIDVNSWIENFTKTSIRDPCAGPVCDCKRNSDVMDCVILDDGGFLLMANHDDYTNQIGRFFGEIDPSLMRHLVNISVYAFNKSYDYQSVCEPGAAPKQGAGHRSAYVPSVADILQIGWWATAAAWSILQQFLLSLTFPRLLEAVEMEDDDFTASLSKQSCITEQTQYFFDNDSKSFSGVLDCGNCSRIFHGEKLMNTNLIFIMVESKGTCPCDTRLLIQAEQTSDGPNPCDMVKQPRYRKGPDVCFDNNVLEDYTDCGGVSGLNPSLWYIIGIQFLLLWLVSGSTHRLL

For `CNCCC(Oc1cc(Br)ccc1-n1nc2c(N(C)C)nnc(C)c2c1C)c1ccccc1` (stereo not shown) [Example 25, 2-(4-bromo-2-(3-(methylamino)-1-phenylpropoxy)phenyl)-N,N,3,4-tetramethyl-2H-pyrazolo[3,4-d]pyridazin-7-amine], the inhibition constant Ki (as a rule, a dissociation constant, usually derived from enzyme kinetics or from competition with a known ligand) in test [1] (setting [3]) was above 500 nM; in test [2] (setting [4]) it was 500 to 5000 nM.

In the case of `COCCNCCC(Oc1ccccc1-n1nc2c(N(C)C)nnc(C)c2c1C)c1ccccc1` (stereo not shown) [Example 26, 2-(2-(3-((2-methoxyethyl)amino)-1-phenylpropoxy)phenyl)-N,N,3,4-tetramethyl-2H-pyrazolo[3,4-d]pyridazin-7-amine], the Ki in test [1] (setting [3]) was above 500 nM; in test [2] (setting [4]), 500 to 5000 nM.

For `Cc1nnc(N(C)C)c2nn(-c3ccccc3OC(CCNC3CC3)c3ccccc3)c(C)c12` (stereo not shown) [Example 27, 2-(2-(3-(cyclopropylamino)-1-phenylpropoxy)phenyl)-N,N,3,4-tetramethyl-2H-pyrazolo[3,4-d]pyridazin-7-amine], the Ki in test [1] lay within 100 to 500 nM; in test [2], 500 to 5000 nM.

With `CNCCC(Oc1ccc(Br)cc1-n1nc2c(N(C)C)nnc(C)c2c1C)c1ccccc1` (stereo not shown) [Example 28, 2-(5-bromo-2-(3-(methylamino)-1-phenylpropoxy)phenyl)-N,N,3,4-tetramethyl-2H-pyrazolo[3,4-d]pyridazin-7-amine], the Ki was above 500 nM in test [1] (setting [3]) and 500 to 5000 nM in test [2] (setting [4]).

On to `Cc1nnc(N(C)C)c2nn(-c3ccccc3OCC3NCCc4ccccc43)c(C)c12` (stereo not shown) [Example 29, N,N,3,4-tetramethyl-2-(2-((1,2,3,4-tetrahydroisoquinolin-1-yl)methoxy)phenyl)-2H-pyrazolo[3,4-d]pyridazin-7-amine], for which the Ki in test [1] (setting [3]) was above 500 nM; in test [2] (setting [4]), 500 to 5000 nM.

In the case of `Cc1nnc(N(C)C)c2nn(-c3ccccc3OCC3CNCc4ccccc43)c(C)c12` (stereo not shown) [Example 30, N,N,3,4-tetramethyl-2-(2-((1,2,3,4-tetrahydroisoquinolin-4-yl)methoxy)phenyl)-2H-pyrazolo[3,4-d]pyridazin-7-amine], the Ki in test [1] (setting [3]) is above 500 nM; in test [2] (setting [4]), above 5000 nM.

`Cc1nnc(N(C)C)c2nn(-c3ccccc3OCCCNCCc3ccccc3)c(C)c12` [Example 31, N,N,3,4-tetramethyl-2-(2-(3-(phenethylamino)propoxy)phenyl)-2H-pyrazolo[3,4-d]pyridazin-7-amine]: the Ki is above 500 nM in test [1] (setting [3]) and 500 to 5000 nM in test [2] (setting [4]).

As to `Cc1nnc(N(C)C)c2nn(-c3ccccc3OC3CNCc4ccccc43)c(C)c12` (stereo not shown) [Example 32, N,N,3,4-tetramethyl-2-(2-((1,2,3,4-tetrahydroisoquinolin-4-yl)oxy)phenyl)-2H-pyrazolo[3,4-d]pyridazin-7-amine], the Ki in test [1] (setting [3]) is above 500 nM; in test [2] (setting [4]) it was 500 to 5000 nM.

For `CNCCC(Oc1ccccc1-n1nc2c(N(C)C)nnc(C)c2c1C)c1nccs1` (stereo not shown) [Example 33, N,N,3,4-tetramethyl-2-(2-(3-(methylamino)-1-(thiazol-2-yl)propoxy)phenyl)-2H-pyrazolo[3,4-d]pyridazin-7-amine], the Ki in test [1] (setting [3]) was above 500 nM; in test [2] (setting [4]), 500 to 5000 nM.

In the case of `Cc1nnc(N(C)C)c2nn(-c3ccccc3OC(c3ccccc3)C3CNC3)c(C)c12` (stereo not shown) [Example 34, 2-(2-(azetidin-3-yl(phenyl)methoxy)phenyl)-N,N,3,4-tetramethyl-2H-pyrazolo[3,4-d]pyridazin-7-amine], the Ki in test [1] (setting [3]) was above 500 nM; in test [2] (setting [4]), 500 to 5000 nM.

As to `CNCCC(Oc1ccccc1-n1nc2c(N3CC(OC)C3)nnc(C)c2c1C)c1ccccc1` (stereo not shown) [Example 35, 3-(2-(7-(3-methoxyazetidin-1-yl)-3,4-dimethyl-2H-pyrazolo[3,4-d]pyridazin-2-yl)phenoxy)-N-methyl-3-phenylpropan-1-amine], the inhibitory constant (Ki) in test [1] (setting [3]) is above 500 nM; in test [2] (setting [4]), 500 to 5000 nM.

In the case of `CNCCC(Oc1ccccc1-n1nc2c(N3CCCC3)nnc(C)c2c1C)c1ccccc1` (stereo not shown) [Example 36, 3-(2-(3,4-dimethyl-7-(pyrrolidin-1-yl)-2H-pyrazolo[3,4-d]pyridazin-2-yl)phenoxy)-N-methyl-3-phenylpropan-1-amine], the Ki in test [1] (setting [3]) was above 500 nM; in test [2] (setting [4]), 500 to 5000 nM.

For the compound `CCN(C)c1nnc(C)c2c(C)n(-c3ccccc3OC(CCNC)c3ccccc3)nc12` (stereo not shown) [Example 37, N-ethyl-N,3,4-trimethyl-2-(2-(3-(methylamino)-1-phenylpropoxy)phenyl)-2H-pyrazolo[3,4-d]pyridazin-7-amine], the inhibitory constant (Ki) in test [1] lay in the range of 100 to 500 nM; in test [2], 500 to 5000 nM.

On to `Cc1nnc(N(C)C)c2nn(-c3ccccc3OC(CCN)c3ccccc3)c(C)c12` (stereo not shown) [Example 38, 2-(2-(3-amino-1-phenylpropoxy)phenyl)-N,N,3,4-tetramethyl-2H-pyrazolo[3,4-d]pyridazin-7-amine], for which the Ki in test [1] (setting [3]) is above 500 nM; in test [2] (setting [4]), 500 to 5000 nM.

For `CNCCC(Oc1ccccc1-n1nc2c(N3CCC3)nnc(C)c2c1C)c1ccccc1` (stereo not shown) [Example 39, 3-(2-(7-(azetidin-1-yl)-3,4-dimethyl-2H-pyrazolo[3,4-d]pyridazin-2-yl)phenoxy)-N-methyl-3-phenylpropan-1-amine], the values for the Ki in test [1] (setting [3]) and in test [2] (setting [4]) were above 500 nM and 500 to 5000 nM, respectively.

With `CNCCCOc1ccccc1-n1nc2c(N(C)Cc3ccccc3)nnc(C)c2c1C` [Example 40, N-benzyl-N,3,4-trimethyl-2-(2-(3-(methylamino)propoxy)phenyl)-2H-pyrazolo[3,4-d]pyridazin-7-amine], the Ki was above 500 nM in test [1] (setting [3]) and 500 to 5000 nM in test [2] (setting [4]).

In the case of `CNCCC(Oc1ccccc1-n1nc2c(N(C)C)nnc(C)c2c1C)c1ccccc1F` (stereo not shown) [Example 41, 2-(2-(1-(2-fluorophenyl)-3-(methylamino)propoxy)phenyl)-N,N,3,4-tetramethyl-2H-pyrazolo[3,4-d]pyridazin-7-amine], the Ki in test [1] (setting [3]) was above 500 nM; in test [2] (setting [4]), 500 to 5000 nM.

As for `CNCCC(Oc1ccccc1-n1nc2c(N(C)C)nnc(C)c2c1C)c1ccc(F)cc1` (stereo not shown) [Example 42, 2-(2-(1-(4-fluorophenyl)-3-(methylamino)propoxy)phenyl)-N,N,3,4-tetramethyl-2H-pyrazolo[3,4-d]pyridazin-7-amine], the Ki was above 500 nM in test [1] and below 500 nM in test [2].

For the compound `COCC(CCN(C)Cc1ccccc1)Oc1ccccc1-n1nc2c(N(C)C)nnc(C)c2c1C` (stereo not shown) [Example 43, 2-(2-((4-(benzyl(methyl)amino)-1-methoxybutan-2-yl)oxy)phenyl)-N,N,3,4-tetramethyl-2H-pyrazolo[3,4-d]pyridazin-7-amine], the figures for the Ki in test [1] (setting [3]) and in test [2] (setting [4]) were above 500 nM and 500 to 5000 nM, respectively.

With `CNCCC(Oc1ccccc1-n1nc2c(N(C)C)nnc(C)c2c1C)c1cccc(F)c1` (stereo not shown) [Example 44, 2-(2-(1-(3-fluorophenyl)-3-(methylamino)propoxy)phenyl)-N,N,3,4-tetramethyl-2H-pyrazolo[3,4-d]pyridazin-7-amine], the Ki in test [1] is 100 to 500 nM; in test [2], below 500 nM.

Consider `CNCc1cccc(COc2ccccc2-n2nc3c(N(C)C)nnc(C)c3c2C)c1` [Example 45, N,N,3,4-tetramethyl-2-(2-((3-((methylamino)methyl)benzyl)oxy)phenyl)-2H-pyrazolo[3,4-d]pyridazin-7-amine], for which the Ki in test [1] (setting [3]) was above 500 nM; in test [2] (setting [4]), 500 to 5000 nM.

As to `CNCCCC(Oc1ccccc1-n1nc2c(N(C)C)nnc(C)c2c1C)c1ccccc1` (stereo not shown) [Example 46, N,N,3,4-tetramethyl-2-(2-(4-(methylamino)-1-phenylbutoxy)phenyl)-2H-pyrazolo[3,4-d]pyridazin-7-amine], the Ki in test [1] (setting [3]) is above 500 nM; in test [2] (setting [4]) it was 500 to 5000 nM.

Regarding `CCNCCC(Oc1ccccc1-n1nc2c(N(C)C)nnc(C)c2c1C)c1cccc(F)c1` (stereo not shown) [Example 47, 2-(2-(3-(ethylamino)-1-(3-fluorophenyl)propoxy)phenyl)-N,N,3,4-tetramethyl-2H-pyrazolo[3,4-d]pyridazin-7-amine], the Ki in test [1] is 100 to 500 nM; in test [2] it was below 500 nM.
